According to ChEMBL document CHEMBL1156513, “Pharmacologic inhibition of tpl2 blocks inflammatory responses in primary human monocytes, synoviocytes, and blood” (J Biol Chem, 2007):
Calls of active or inactive are those of the source. No cut-off for these calls is given here.

Legend:
[1] = biological target: Mitogen-activated protein kinase kinase kinase 8 (Homo sapiens, UniProt P41279); experiment: Inhibition of human Tpl2 by ELISA
[2] = (§1) Inhibition of LPS-induced MEK phosphorylation in primary human monocytes by immunoblot analysis; format: cell-based
[3] = (§2) Inhibition of LPS-induced ERK phosphorylation in primary human monocytes by immunoblot analysis; format: cell-based
HeLa [4] = experiment: Inhibition of TNF-alpha-induced ERK phosphorylation in human HeLa cells by immunoblot analysis; format: functional, cell-based
[5] = Inhibition of TNF-alpha-stimulated PGE2 production in human RA-FLS cells by immunoblot analysis; format: functional, cell-based
Stromelysin-1 = Stromelysin-1 (Homo sapiens, UniProt P08254); experiment: Inhibition of IL-1-beta-stimulated MMP3 in human RA-FLS cells by immunoblot analysis; format: cell-based
Stromelysin-1, sequence (P08254 whole entry): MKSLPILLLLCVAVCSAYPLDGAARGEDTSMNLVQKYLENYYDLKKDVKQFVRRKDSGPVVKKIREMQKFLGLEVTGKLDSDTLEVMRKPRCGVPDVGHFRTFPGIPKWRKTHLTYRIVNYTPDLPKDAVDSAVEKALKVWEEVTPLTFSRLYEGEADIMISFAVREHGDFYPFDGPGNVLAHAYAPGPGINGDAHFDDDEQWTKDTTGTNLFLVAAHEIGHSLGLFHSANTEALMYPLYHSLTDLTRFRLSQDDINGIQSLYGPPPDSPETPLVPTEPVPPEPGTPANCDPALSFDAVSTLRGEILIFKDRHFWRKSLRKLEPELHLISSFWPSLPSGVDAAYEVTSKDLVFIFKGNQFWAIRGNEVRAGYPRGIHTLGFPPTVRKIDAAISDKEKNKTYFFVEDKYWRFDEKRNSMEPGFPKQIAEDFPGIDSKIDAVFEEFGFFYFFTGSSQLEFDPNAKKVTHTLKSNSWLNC

[6] = biological target: Dual specificity mitogen-activated protein kinase kinase 1 (Oryctolagus cuniculus, UniProt P29678); experiment: Inhibition of rabbit MEK1 by ELISA
Dual specificity mitogen-activated protein kinase kinase 1, sequence (P29678 whole entry): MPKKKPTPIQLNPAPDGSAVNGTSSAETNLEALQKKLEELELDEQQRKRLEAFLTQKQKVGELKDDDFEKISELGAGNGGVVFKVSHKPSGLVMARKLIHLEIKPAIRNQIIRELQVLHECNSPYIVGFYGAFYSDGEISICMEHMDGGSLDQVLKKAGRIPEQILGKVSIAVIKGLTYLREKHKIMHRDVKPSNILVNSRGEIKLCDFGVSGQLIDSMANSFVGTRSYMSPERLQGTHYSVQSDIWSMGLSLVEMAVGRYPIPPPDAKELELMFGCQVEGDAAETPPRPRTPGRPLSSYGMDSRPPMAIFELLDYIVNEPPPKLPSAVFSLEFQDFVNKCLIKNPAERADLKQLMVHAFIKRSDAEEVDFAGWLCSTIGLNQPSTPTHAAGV

[7] = biological target: Mitogen-activated protein kinase 14 (Homo sapiens, UniProt Q16539); experiment: Inhibition of human p38alpha by ELISA
Mitogen-activated protein kinase 14, sequence (Q16539 whole entry): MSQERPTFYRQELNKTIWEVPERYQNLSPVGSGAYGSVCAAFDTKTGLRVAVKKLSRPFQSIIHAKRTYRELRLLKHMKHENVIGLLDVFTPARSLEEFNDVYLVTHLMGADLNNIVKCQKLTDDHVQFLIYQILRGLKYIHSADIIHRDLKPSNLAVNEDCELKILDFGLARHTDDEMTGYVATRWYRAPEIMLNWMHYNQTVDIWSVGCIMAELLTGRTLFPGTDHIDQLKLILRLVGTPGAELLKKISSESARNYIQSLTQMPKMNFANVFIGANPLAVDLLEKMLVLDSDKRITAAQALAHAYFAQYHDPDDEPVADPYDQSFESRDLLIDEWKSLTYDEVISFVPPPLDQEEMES

[8] = biological target: Proto-oncogene tyrosine-protein kinase Src (Homo sapiens, UniProt P12931); experiment: Inhibition of human Src by ELISA
Proto-oncogene tyrosine-protein kinase Src, sequence (P12931 2-536 limits assumed): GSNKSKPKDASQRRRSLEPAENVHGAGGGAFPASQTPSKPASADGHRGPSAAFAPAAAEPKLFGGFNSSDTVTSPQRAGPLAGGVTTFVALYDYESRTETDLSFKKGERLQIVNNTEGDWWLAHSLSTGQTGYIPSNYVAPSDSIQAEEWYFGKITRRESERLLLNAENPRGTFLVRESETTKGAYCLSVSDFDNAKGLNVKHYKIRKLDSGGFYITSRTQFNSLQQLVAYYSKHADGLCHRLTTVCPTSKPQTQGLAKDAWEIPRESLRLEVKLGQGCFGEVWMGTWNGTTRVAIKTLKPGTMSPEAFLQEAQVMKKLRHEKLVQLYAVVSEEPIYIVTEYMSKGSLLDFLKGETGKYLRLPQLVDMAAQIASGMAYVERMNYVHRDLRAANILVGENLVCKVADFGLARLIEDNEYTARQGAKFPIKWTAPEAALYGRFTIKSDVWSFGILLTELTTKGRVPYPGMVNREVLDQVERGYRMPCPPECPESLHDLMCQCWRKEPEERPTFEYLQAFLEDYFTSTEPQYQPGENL

[9] = Inhibition of human CaMK2 by ELISA
[10] = Inhibition of human PKA by scintiplate assay
[11] = biological target: Protein kinase C alpha type (Homo sapiens, UniProt P17252); experiment: Inhibition of human PKCalpha by scintiplate assay
[12] = biological target: T1, MAP kinase-activated protein kinase 2 (Homo sapiens, UniProt P49137); experiment: Inhibition of human MK2 by scintiplate assay
Target sequence in this assay (P49137 whole entry): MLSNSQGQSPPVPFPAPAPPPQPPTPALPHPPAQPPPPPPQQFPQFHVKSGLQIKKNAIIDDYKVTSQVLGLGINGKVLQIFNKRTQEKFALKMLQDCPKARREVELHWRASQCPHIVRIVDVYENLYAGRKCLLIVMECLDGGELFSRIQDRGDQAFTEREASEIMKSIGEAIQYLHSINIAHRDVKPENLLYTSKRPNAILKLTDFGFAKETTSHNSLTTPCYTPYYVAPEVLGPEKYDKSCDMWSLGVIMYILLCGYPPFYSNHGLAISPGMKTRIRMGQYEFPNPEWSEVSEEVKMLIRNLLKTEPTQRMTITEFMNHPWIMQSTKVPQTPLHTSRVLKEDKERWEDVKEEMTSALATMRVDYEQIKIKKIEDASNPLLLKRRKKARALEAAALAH

[13] = Inhibition of human S6K by scintiplate assay
[14] = Inhibition of human JNK1alpha by scintiplate assay
[15] = biological target: T2, Dual specificity mitogen-activated protein kinase kinase 6 (Homo sapiens, UniProt P52564); experiment: Inhibition of human MKK6 by ELISA
T2 sequence (P52564 whole entry): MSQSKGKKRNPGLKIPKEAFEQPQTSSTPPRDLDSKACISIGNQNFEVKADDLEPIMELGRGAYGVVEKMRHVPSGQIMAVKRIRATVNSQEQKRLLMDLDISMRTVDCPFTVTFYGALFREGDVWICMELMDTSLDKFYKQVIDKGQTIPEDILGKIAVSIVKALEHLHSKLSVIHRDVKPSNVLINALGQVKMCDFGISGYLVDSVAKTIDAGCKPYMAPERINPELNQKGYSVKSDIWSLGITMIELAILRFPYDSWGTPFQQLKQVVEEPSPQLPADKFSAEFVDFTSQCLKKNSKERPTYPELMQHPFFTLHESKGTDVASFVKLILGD

[16] = biological target: T3, Inhibitor of nuclear factor kappa-B kinase subunit beta (Homo sapiens, UniProt O14920); experiment: Inhibition of human IKK-beta by ELISA
T3 sequence (O14920 whole entry): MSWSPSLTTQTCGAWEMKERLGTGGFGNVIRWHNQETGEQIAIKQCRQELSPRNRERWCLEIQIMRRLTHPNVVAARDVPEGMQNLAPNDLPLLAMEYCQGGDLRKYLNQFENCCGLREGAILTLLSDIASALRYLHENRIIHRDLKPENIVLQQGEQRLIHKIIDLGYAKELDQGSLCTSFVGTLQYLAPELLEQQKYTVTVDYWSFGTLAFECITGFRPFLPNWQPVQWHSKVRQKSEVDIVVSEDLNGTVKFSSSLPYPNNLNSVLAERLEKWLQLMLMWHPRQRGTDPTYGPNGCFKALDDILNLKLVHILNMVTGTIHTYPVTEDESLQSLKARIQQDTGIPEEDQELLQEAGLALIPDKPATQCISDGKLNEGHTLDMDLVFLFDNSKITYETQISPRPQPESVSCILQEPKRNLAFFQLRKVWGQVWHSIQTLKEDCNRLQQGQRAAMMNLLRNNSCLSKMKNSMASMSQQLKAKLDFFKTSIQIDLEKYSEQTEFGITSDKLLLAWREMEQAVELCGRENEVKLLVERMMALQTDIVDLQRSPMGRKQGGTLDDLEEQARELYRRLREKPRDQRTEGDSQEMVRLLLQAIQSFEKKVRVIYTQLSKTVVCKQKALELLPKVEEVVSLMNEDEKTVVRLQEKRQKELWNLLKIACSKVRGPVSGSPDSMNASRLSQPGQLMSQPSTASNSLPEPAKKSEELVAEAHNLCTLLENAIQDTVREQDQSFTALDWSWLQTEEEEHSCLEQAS

[17] = biological target: RAF proto-oncogene serine/threonine-protein kinase (Homo sapiens, UniProt P04049); experiment: Inhibition of human Raf1
RAF proto-oncogene serine/threonine-protein kinase, sequence (P04049 whole entry): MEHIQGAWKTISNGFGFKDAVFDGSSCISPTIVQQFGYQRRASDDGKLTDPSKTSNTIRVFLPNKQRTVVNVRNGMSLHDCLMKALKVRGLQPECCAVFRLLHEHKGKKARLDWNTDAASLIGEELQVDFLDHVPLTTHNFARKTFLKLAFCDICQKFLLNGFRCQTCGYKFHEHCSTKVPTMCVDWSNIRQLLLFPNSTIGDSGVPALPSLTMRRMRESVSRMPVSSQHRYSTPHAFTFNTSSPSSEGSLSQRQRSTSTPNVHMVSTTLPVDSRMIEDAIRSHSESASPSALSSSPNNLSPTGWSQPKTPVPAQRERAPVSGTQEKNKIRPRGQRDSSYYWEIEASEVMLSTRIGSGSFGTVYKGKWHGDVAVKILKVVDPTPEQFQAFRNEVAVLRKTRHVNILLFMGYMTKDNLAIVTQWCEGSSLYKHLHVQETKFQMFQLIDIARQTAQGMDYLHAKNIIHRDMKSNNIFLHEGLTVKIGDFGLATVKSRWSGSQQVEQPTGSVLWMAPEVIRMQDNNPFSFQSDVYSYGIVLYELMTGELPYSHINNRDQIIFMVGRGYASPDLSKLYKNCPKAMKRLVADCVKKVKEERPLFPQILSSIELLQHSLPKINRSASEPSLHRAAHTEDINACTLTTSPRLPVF

HeLa [18] = experiment: Inhibition of IL8 production in human Tpl2 expressing HeLa cells after 17 hrs by ELISA; format: functional, cell-based
HeLa [19] = experiment: Inhibition of human MEK phosphorylation in Tpl2 transfected HeLa cells; format: cell-based
HeLa [20] = experiment: Inhibition of human ERK phosphorylation in Tpl2 transfected HeLa cells; format: cell-based
HeLa [21] = experiment: Cytotoxicity against human HeLa cells; format: functional, cell-based
[22] = biological target: MAP kinase p38 (Homo sapiens) (UniProt O15264+Q15759+Q16539+P53778); experiment: Inhibition of LPS-induced p38 phosphorylation in primary human monocytes upto 5 uM by immunoblot analysis; format: cell-based
[23] = biological target: T1, MAP kinase-activated protein kinase 2; experiment: Inhibition of LPS-induced MK2 phosphorylation in primary human monocytes upto 5 uM by immunoblot analysis; format: cell-based
Target sequence in this assay (P49137 whole entry, looked up): as the sequence (P49137 whole entry) above

Homo sapiens [24] = species: Homo sapiens; experiment: Inhibition of LPS-induced c-Jun phosphorylation in primary human monocytes upto 5 uM by immunoblot analysis; format: cell-based
[25] = biological target: T4, NF-kappa-B inhibitor alpha (Homo sapiens) (UniProt P25963); experiment: Inhibition of LPS-induced IkappaBalpha phosphorylation in primary human monocytes upto 5 uM by immunoblot analysis; format: cell-based
T4 sequence (whole entry): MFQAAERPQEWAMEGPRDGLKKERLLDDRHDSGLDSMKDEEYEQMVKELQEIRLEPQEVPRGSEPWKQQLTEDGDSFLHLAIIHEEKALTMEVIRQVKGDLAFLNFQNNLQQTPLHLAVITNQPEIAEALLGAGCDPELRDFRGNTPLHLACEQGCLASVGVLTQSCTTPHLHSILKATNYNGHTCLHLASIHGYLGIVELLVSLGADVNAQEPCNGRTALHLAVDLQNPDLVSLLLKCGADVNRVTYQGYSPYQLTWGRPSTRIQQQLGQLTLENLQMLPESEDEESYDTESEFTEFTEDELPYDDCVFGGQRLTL

Homo sapiens [26] = species: Homo sapiens; experiment: Effect on ERK activation in LPS-induced tpl2-/- mouse peritoneal macrophages
HEK293 [27] = experiment: Inhibition of TNF-induced NF-kappaB activation in HEK293 cells upto 10 uM by luciferase assay; format: cell-based; conditions: Homo sapiens
HEK293 [28] = experiment: Inhibition of IL-1-beta-induced NF-kappaB activation in HEK293 cells upto 10 uM by luciferase assay; format: cell-based; conditions: Homo sapiens
Homo sapiens [29] = species: Homo sapiens; experiment: Inhibition of PMA-induced MEK phosphorylation in primary human monocytes by immunoblot analysis; format: cell-based
Homo sapiens [30] = species: Homo sapiens; experiment: Inhibition of PMA-induced ERK phosphorylation in primary human monocytes by immunoblot analysis; format: cell-based
Monocyte [31] = experiment: Inhibition of LPS-induced TNFalpha production in primary human monocytes; format: functional, cell-based
Monocyte [32] = experiment: Inhibition of IL-1-beta-induced TNFalpha production in primary human monocytes; format: functional, cell-based
Monocyte [33] = experiment: (§3) Inhibition of LPS-induced IL12p40 production in primary human monocytes; format: functional, cell-based
Monocyte [34] = experiment: (§4) Inhibition of IL-1-beta-induced IL12p40 production in primary human monocytes at 5 uM; format: functional, cell-based
Monocyte [35] = experiment: as §3; format: functional
Monocyte [36] = experiment: as §4; format: functional
Blood [37] = experiment: Inhibition of LPS-induced TNFalpha production in human blood; format: functional, tissue-based
Blood [38] = experiment: Inhibition of IL-1-beta-induced TNFalpha production in human blood; format: functional, tissue-based
[39] = Cytotoxicity against primary human monocytes at 5 uM; format: cell-based; conditions: monocyte
[40] = Inhibition of IL-1-beta-induced MEK phosphorylation in primary human monocytes by immunoblot analysis; format: cell-based
[41] = Inhibition of IL-1-beta-induced ERK phosphorylation in primary human monocytes by immunoblot analysis; format: cell-based
Mus musculus = species: Mus musculus; experiment: Effect on IL-1-beta-induced ERK phosphorylation in 129S5 mouse thioglycollate elicited peritoneal macrophages
[42] = Inhibition of IL-1-beta-stimulated ERK phosphorylation in shuman RA-FLS cells by immunoblot analysis; format: cell-based; conditions: Homo sapiens
RA-FLS [43] = experiment: Inhibition of IL-1-beta-stimulated COX2 expression in human RA-FLS cells after 4 hrs by immunoblot analysis; format: functional, cell-based
RA-FLS [44] = experiment: Inhibition of IL-1-beta-stimulated PGE2 production in human RA-FLS cells after 4 hrs by ELISA; format: functional, cell-based
[45] = Cytotoxicity against human RA-FLS cells at =< 10 uM; format: cell-based
[46] = Inhibition of IL-1-beta-stimulated IL6 production in human RA-FLS cells by immunoblot analysis; format: functional, cell-based
[47] = Inhibition of IL-1-beta-stimulated IL8 production in human RA-FLS cells by immunoblot analysis; format: functional, cell-based
[48] = Inhibition of IL-1-beta-stimulated PGE2 production in human RA-FLS cells by immunoblot analysis; format: functional, cell-based
[49] = Inhibition of IL-1-beta-stimulated MMP1 in human RA-FLS cells by immunoblot analysis; format: functional, cell-based
HeLa [50] = experiment: Inhibition of TNF-alpha-induced IL8 production in human HeLa cells after 4 hrs; format: functional, cell-based
Homo sapiens [51] = species: Homo sapiens; experiment: as §1; format: cell-based
Homo sapiens [52] = species: Homo sapiens; experiment: as §2; format: cell-based

Mitogen-activated protein kinase kinase kinase 8, sequence (P41279 whole entry): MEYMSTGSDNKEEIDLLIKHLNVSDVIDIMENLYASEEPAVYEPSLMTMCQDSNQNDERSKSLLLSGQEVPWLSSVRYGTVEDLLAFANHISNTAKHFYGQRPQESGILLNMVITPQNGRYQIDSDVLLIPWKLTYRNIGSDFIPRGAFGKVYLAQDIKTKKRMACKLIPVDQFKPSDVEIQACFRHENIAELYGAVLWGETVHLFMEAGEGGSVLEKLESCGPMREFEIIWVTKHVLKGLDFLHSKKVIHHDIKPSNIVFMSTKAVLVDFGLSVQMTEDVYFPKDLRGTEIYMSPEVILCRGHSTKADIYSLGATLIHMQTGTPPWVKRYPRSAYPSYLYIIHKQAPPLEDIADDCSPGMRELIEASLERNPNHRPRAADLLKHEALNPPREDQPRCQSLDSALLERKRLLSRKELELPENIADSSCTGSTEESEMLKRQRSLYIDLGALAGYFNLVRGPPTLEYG

C[C@@H](Nc1cc2c(Nc3ccc(F)c(Cl)c3)c(C#N)cnc2cn1)c1ccccc1 gave an IC50 [1] of 16 nM, an IC50 [2] of no more than 1000 nM and an IC50 [3] of no more than 1000 nM.

N#Cc1cnc2c(Cl)cc(NCc3cnc[nH]3)cc2c1Nc1ccc(F)c(Cl)c1 gave an IC50 (HeLa [4]) of 2500 nM, an IC50 [5] of 700 nM and an IC50 (Stromelysin-1) of 2300 nM. The IC50 [1] was 12 nM, the IC50 [6] was greater than 40000 nM and the IC50 [7] was greater than 100000 nM. It also gave an IC50 [8] greater than 100000 nM, an IC50 [9] of 23000 nM and an IC50 [10] greater than 100000 nM. For the same compound, the IC50 [11] was greater than 100000 nM, the IC50 [12] was 48000 nM and the IC50 [13] was greater than 100000 nM. For the same compound, the IC50 [14] was 65000 nM, the IC50 [15] was greater than 100000 nM and the IC50 [16] was 73000 nM. For the same compound, the IC50 [17] was greater than 100000 nM, the IC50 (HeLa [18]) was 1000 nM and the Activity (HeLa [19]) was “Active”. For the same compound, the Activity (HeLa [20]) was “Active”, the Activity (HeLa [21]) was “inactive” and the IC50 [2] was 500 nM. The IC50 [3] was 100 nM, the Activity [22] was “inactive” and the Activity [23] was “inactive”. The Activity (Homo sapiens [24]) was “inactive”, the Activity [25] was “inactive” and the Activity (Homo sapiens [26]) was “inactive”. For the same compound, the Activity (HEK293 [27]) was “inactive”, the Activity (HEK293 [28]) was “inactive” and the Activity (Homo sapiens [29]) was “inactive”. The Activity (Homo sapiens [30]) was “inactive”, the IC50 (Monocyte [31]) was 600 nM and the IC50 (Monocyte [32]) was 700 nM. The IC50 (Monocyte [33]) was greater than 5000 nM, the IC50 (Monocyte [34]) was greater than 5000 nM and the “inhibition (INH)” value (Monocyte [35]) was 39%. For the same compound, the inhibition at 5 µM (Monocyte [36]) was 30%, the IC50 (Blood [37]) was 5400 nM and the IC50 (Blood [38]) was 7200 nM. The Activity [39] was “Non-toxic”, the IC50 [40] was 500 nM and the IC50 [41] was 300 nM. The Activity (Mus musculus) was “Dose-dependent effect”, the IC50 [42] was 300 nM and the Activity (RA-FLS [43]) was “Active”. The Activity (RA-FLS [44]) was “Active”, the Activity [45] was “Non-toxic” and the IC50 [46] was 6900 nM. The IC50 [47] was 7900 nM, the IC50 [48] was 400 nM and the IC50 [49] was 4000 nM. The IC50 (HeLa [50]) was 200 nM.

For C[C@H](Nc1cc2c(Nc3ccc(F)c(Cl)c3)c(C#N)cnc2cn1)c1ccccc1, the Activity (Homo sapiens [51]) was “inactive” and the Activity (Homo sapiens [52]) was “inactive”.
